PMC8535176, “Efficacy of epetraborole against Mycobacterium abscessus is increased with norvaline” (PLoS Pathogens, 2021)
Converted amounts (≈) assume the structure as drawn. Like-named read-outs stand apart in the source and are kept apart here.

Columns and labels:
Test in all cases: microbe, parasite or virus in culture
[1] = tested on: T1, Mycobacteroides abscessus subsp. abscessus MT16_1065; set-up: species or system M. abscessus; Resazurin microtiter assay (REMA), fluorescence; MIC at 90% growth inhibition from Gompertz fit; conditions: 48 h, smooth morphotype
T1 construct: MT16_1065
Description: (§1) MIC values were determined using the resazurin microtiter assay (REMA). Cultures were grown to log phase (OD600 of 0.4–0.8) and diluted to OD600 of 0.005. Drugs were prepared in two-fold serial dilutions in 96-well plates with 90 μL of bacteria per well to a final volume of 100 μL. Plates were incubated at 37°C until drug-free wells were turbid (2 days for M. abscessus). Ten μL of resazurin (0.025% wt/vol) was added to each well. Once the drug-free wells turned pink (one doubling time), the fluorescence (ex/em 560nm/590nm) was measured using an Infinite F200 Tecan plate reader. Fluorescence intensities were converted to % viable cells relative to drug-free conditions and fit to the Gompertz equation using GraphPad Prism version 9. MIC values at 90% growth inhibition were determined from the nonlinear regression Gompertz equation. Next, we tested the in vitro activity of EPT against a panel of M. abscessus clinical isolates belonging to the three subspecies of the M. abscessus complex (M. abscessus, M. massiliense, and M. bolletii) with smooth and rough colony morphologies and with different drug susceptibility profiles to various antibiotics. There was no loss in activity against clinical isolates (range of 0.014–0.046 μg/mL) nor different morphologies (S2 Table). To determine the spectrum of activity of EPT, we curated a panel of various mycobacteria and representative gram-positive and gram-negative bacteria. […] Mycobacteria strains were grown in rolling [compound left out] culture at 37°C in Middlebrook 7H9 (Difco) supplemented with 10% albumin dextrose catalase (ADC), 0.2% glycerol, and 0.05% Tween 80 (7H9 complete) or on 7H10 agar plates supplemented with 10% oleic acid ADC and 0.5% glycerol at 37°C. When mentioned, the carbon source was modified from glycerol to acetate or the detergent Tween 80 was removed from the media. Bacillus cereus (clinical isolate), Corynebacterium glutamicum (ATCC 13032), Escherichia coli, and Pseudomonas aeruginosa PAO1 were grown in LB broth. HepG2 cells (ATCC HB-8065) were grown in Dulbecco’s modified Eagle’s medium (DMEM) with phenol red (from Gibco) supplemented with 10% fetal bovine serum at 37°C with 5% CO2.

[2] = tested on: T2, Mycobacteroides abscessus subsp. massiliense MT15_1749; set-up: species or system M. abscessus; Resazurin microtiter assay (REMA), fluorescence; MIC at 90% growth inhibition from Gompertz fit; conditions: 48 h, rough morphotype
T2 construct: MT15_1749
Description: as §1

[3] = tested on: T3, Mycobacteroides abscessus subsp. bolletii Paris 167; set-up: species or system M. abscessus; Resazurin microtiter assay (REMA), fluorescence; MIC at 90% growth inhibition from Gompertz fit; conditions: 48 h, rough morphotype
T3 construct: Paris 167
Description: as §1

[4] = tested on: T4, Mycobacteroides abscessus subsp. bolletii AV; set-up: species or system M. abscessus; Resazurin microtiter assay (REMA), fluorescence; MIC at 90% growth inhibition from Gompertz fit; conditions: 48 h, smooth morphotype
T4 construct: AV
Description: as §1

[5] = tested on: T5, Mycobacteroides abscessus subsp. abscessus MT16_6490; set-up: species or system M. abscessus; Resazurin microtiter assay (REMA), fluorescence; MIC at 90% growth inhibition from Gompertz fit; conditions: 48 h, smooth morphotype
T5 construct: MT16_6490
Description: as §1

[6] = tested on: T6, Mycobacteroides abscessus subsp. massiliense MT15_1748; set-up: species or system M. abscessus; Resazurin microtiter assay (REMA), fluorescence; MIC at 90% growth inhibition from Gompertz fit; conditions: 48 h, rough morphotype
T6 construct: MT15_1748
Description: as §1

M. tuberculosis Erdman = tested on: T7, M. tuberculosis Erdman; set-up: Whole-cell growth inhibition, dose-response MIC (MIC90) by resazurin microtiter assay (REMA), fluorescence read-out; conditions: Mycobacterium tuberculosis, ERDMAN
T7 construct: Erdman

M. avium hominissuis = tested on: M. avium hominissuis; set-up: Whole-cell growth inhibition, dose-response MIC (MIC90) by resazurin microtiter assay (REMA), fluorescence read-out; conditions: Mycobacterium avium
M. tuberculosis H37Rv = tested on: T8, M. tuberculosis H37Rv; set-up: Whole-cell growth inhibition, dose-response MIC (MIC90) by resazurin microtiter assay (REMA), fluorescence read-out; conditions: Mycobacterium tuberculosis, H37RV
T8 construct: H37Rv

M. avium intracellulaire = tested on: M. avium intracellulaire; set-up: Whole-cell growth inhibition, dose-response MIC (MIC90) by resazurin microtiter assay (REMA), fluorescence read-out; conditions: Mycobacterium avium
M. abscessus = tested on: M. abscessus; set-up: Whole-cell growth inhibition, dose-response MIC (MIC90) by resazurin microtiter assay (REMA), fluorescence read-out; conditions: Mycobacteroides abscessus
B. cereus = tested on: B. cereus; set-up: Whole-cell growth inhibition, dose-response MIC (MIC90) by resazurin microtiter assay (REMA), fluorescence read-out; conditions: Bacillus cereus
E. coli = tested on: E. coli; set-up: Whole-cell growth inhibition, dose-response MIC (MIC90) by resazurin microtiter assay (REMA), fluorescence read-out; conditions: Escherichia coli
C. glutamicum = tested on: C. glutamicum; set-up: Whole-cell growth inhibition, dose-response MIC (MIC90) by resazurin microtiter assay (REMA), fluorescence read-out; conditions: Corynebacterium glutamicum
P. aeruginosa = tested on: P. aeruginosa; set-up: Whole-cell growth inhibition, dose-response MIC (MIC90) by resazurin microtiter assay (REMA), fluorescence read-out; conditions: Pseudomonas aeruginosa
[7] = tested on: T9, Mycobacteroides abscessus subsp. abscessus ATCC 19977; set-up: species or system M. abscessus; Resazurin microtiter assay (REMA), fluorescence; MIC at 90% growth inhibition from Gompertz fit; conditions: ATCC19977, 48 h, rough morphotype
T9 construct: ATCC 19977
Description: as §1

In the case of `CO[C@@]1(NC(=O)Cc2cccs2)C(=O)N2C(C(=O)O)=C(COC(N)=O)CS[C@@H]21` [Cefoxitin], the MIC ([1]; read-out: MIC CFX) is reported as 13 µg/mL (≈ 30.4 µM), the MIC ([2]; read-out: MIC CFX) is reported as 16 µg/mL (≈ 37.4 µM) and the MIC ([3]; read-out: MIC CFX) is reported as 16 µg/mL (≈ 37.4 µM). For the same compound, the MIC ([4]; read-out: MIC CFX) was 15 µg/mL (≈ 35.1 µM), the MIC ([5]; read-out: MIC CFX) was 13 µg/mL (≈ 30.4 µM) and the MIC ([6]; read-out: MIC CFX) was 26 µg/mL (≈ 60.8 µM). The MIC (M. tuberculosis Erdman; read-out: MIC (µg/mL) / CFX) was > 98 µg/mL, the MIC (M. avium hominissuis; read-out: MIC (µg/mL) / CFX) was 4.7 µg/mL (≈ 11 µM) and the MIC (M. tuberculosis H37Rv; read-out: MIC (µg/mL) / CFX) was > 98 µg/mL. For the same compound, the MIC (M. avium intracellulaire; read-out: MIC (µg/mL) / CFX) was 0.42 µg/mL (≈ 0.983 µM), the MIC (M. abscessus; read-out: MIC (µg/mL) / CFX) was 12 µg/mL (≈ 28.1 µM) and the MIC (B. cereus; read-out: MIC (µg/mL) / CFX) was > 98 µg/mL. For the same compound, the MIC (E. coli; read-out: MIC (µg/mL) / CFX) was 4 µg/mL (≈ 9.36 µM), the MIC (C. glutamicum; read-out: MIC (µg/mL) / CFX) was 98 µg/mL (≈ 229 µM) and the MIC (P. aeruginosa; read-out: MIC (µg/mL) / CFX) was > 98 µg/mL.
With `CC[C@H]1OC(=O)[C@H](C)[C@@H](O[C@H]2C[C@@](C)(OC)[C@@H](O)[C@H](C)O2)[C@H](C)[C@@H](O[C@@H]2O[C@H](C)C[C@H](N(C)C)[C@H]2O)[C@](C)(OC)C[C@@H](C)C(=O)[C@H](C)[C@@H](O)[C@]1(C)O` [Clarithromycin] the MIC ([1]; read-out: MIC CLR) was 3.4 µg/mL (≈ 4.55 µM), the MIC ([2]; read-out: MIC CLR) was 0.082 µg/mL (≈ 0.11 µM) and the MIC ([7]; read-out: MIC CLR) was 0.65 µg/mL (≈ 0.869 µM). It also gave an MIC ([3]; read-out: MIC CLR) of 2.8 µg/mL (≈ 3.74 µM), an MIC ([4]; read-out: MIC CLR) of 0.15 µg/mL (≈ 0.201 µM) and an MIC ([5]; read-out: MIC CLR) of 2.9 µg/mL (≈ 3.88 µM). For the same compound, the MIC ([6]; read-out: MIC CLR) was 0.068 µg/mL (≈ 0.0909 µM), the MIC (M. tuberculosis Erdman; read-out: MIC (µg/mL) / CLR) was > 1.3 µg/mL and the MIC (M. avium hominissuis; read-out: MIC (µg/mL) / CLR) was 0.18 µg/mL (≈ 0.241 µM). For the same compound, the MIC (M. tuberculosis H37Rv; read-out: MIC (µg/mL) / CLR) was > 1.3 µg/mL, the MIC (M. avium intracellulaire; read-out: MIC (µg/mL) / CLR) was 0.014 µg/mL (≈ 0.0187 µM) and the MIC (M. abscessus; read-out: MIC (µg/mL) / CLR) was 0.9 µg/mL (≈ 1.2 µM). The MIC (B. cereus; read-out: MIC (µg/mL) / CLR) was > 8.2 µg/mL, the MIC (E. coli; read-out: MIC (µg/mL) / CLR) was > 8.2 µg/mL and the MIC (C. glutamicum; read-out: MIC (µg/mL) / CLR) was > 8.2 µg/mL. For the same compound, the MIC (P. aeruginosa; read-out: MIC (µg/mL) / CLR) was > 8.2 µg/mL.
With `CO[C@H]1/C=C/O[C@@]2(C)Oc3c(C)c(O)c4c(O)c(c(/C=N/N5CCN(C)CC5)c(O)c4c3C2=O)NC(=O)/C(C)=C\C=C\[C@H](C)[C@H](O)[C@@H](C)[C@@H](O)[C@@H](C)[C@H](OC(C)=O)[C@@H]1C` [Rifampicin] the MIC ([1]; read-out: MIC RIF) was > 24 µg/mL, the MIC ([2]; read-out: MIC RIF) was 6.7 µg/mL (≈ 8.14 µM) and the MIC ([7]; read-out: MIC RIF) was 1.8 µg/mL (≈ 2.19 µM). For the same compound, the MIC ([3]; read-out: MIC RIF) was 7.4 µg/mL (≈ 8.99 µM), the MIC ([4]; read-out: MIC RIF) was > 24 µg/mL and the MIC ([5]; read-out: MIC RIF) was > 24 µg/mL. The MIC (M. tuberculosis Erdman; read-out: MIC (µg/mL) / RIF) was 0.0065 µg/mL (≈ 0.0079 µM), the MIC (M. avium hominissuis; read-out: MIC (µg/mL) / RIF) was 0.063 µg/mL (≈ 0.0766 µM) and the MIC (M. tuberculosis H37Rv; read-out: MIC (µg/mL) / RIF) was 0.0063 µg/mL (≈ 0.00766 µM). For the same compound, the MIC (M. avium intracellulaire; read-out: MIC (µg/mL) / RIF) was 0.063 µg/mL (≈ 0.0766 µM), the MIC (M. abscessus; read-out: MIC (µg/mL) / RIF) was 9.1 µg/mL (≈ 11.1 µM) and the MIC (B. cereus; read-out: MIC (µg/mL) / RIF) was < 0.063 µg/mL. The MIC (E. coli; read-out: MIC (µg/mL) / RIF) was 3.9 µg/mL (≈ 4.74 µM), the MIC (C. glutamicum; read-out: MIC (µg/mL) / RIF) was < 0.063 µg/mL and the MIC (P. aeruginosa; read-out: MIC (µg/mL) / RIF) was 15 µg/mL (≈ 18.2 µM).
